In patent publication US20080027131A1, “USE OF BENZO-FUSED HETEROCYCLE SULFAMIDE DERIVATIVES FOR THE TREATMENT OF OBESITY” (priority 2005, published 2008):

Assays:
AKR/J Obese Mice = AKR/J Obese Mice In Vivo Assay (Example 13)
Procedure: AKR/J mice are known in the art to be susceptible to diet-induced obesity. (Rossmeisl M, Rim J S, Koza R A, Kozak L P. Diabetes. 2003 August; 52(8):1958-66.)
Male AKR/J mice (˜20 gram) at 4-5 weeks of age (Jackson Laboratories, Bar Harbor, Me.) were housed individually in a shoe-box cage at 21° C. with a 12-h light-dark cycle. The mice were fed with a high fat diet for 8 weeks to induce obesity. The composition of the diet by energy was 45% energy as fat, 20% as protein, and 35% as carbohydrate (Research Diets, D12451, New Brunswick, N.J.).
Obese mice with body weights between 35 and 46 grams were selected for the studies. Mice were randomized according to body weight into treatment groups at 13 weeks of age. The mice were orally gavaged once daily (0.2 ml at 1500-1700 hour) with vehicle control (0.5% methylcellulose, pH7.4) or vehicle containing Compound #8 (300 mg/kg). The body weights and food intake of the mice were monitored every few days. On day 11, the mice were anaesthetized with sodium pentobarbital (1 ml/kg, i.p, Sleepaway, Fort Dodge, Iowa). White adipose tissue (WAT) (retroperitoneal fat) and skeletal muscle (gastrocnemius and soleus muscle) were dissected and weighed.
Data shown below are expressed as mean and standard error calculated using 9-10 mice per treatment group. The 2 tailed Student's t-Tests were used for statistic analysis. All animal studies complied with the guideline of the Institutional Animal Care and Use Committee.

AKR/J mice = experiment: Obesity In Vivo Assays in diet-induced obese AKR/J mice (Example 14, first study and second dose response study); settings: for Intake of high fat diet (g) Day 0-3 / Intake of high fat diet (g) Day 4-7 / Weight loss (g) Day 4 / Weight loss (g) Day 8 / Weight loss (g) Day 10 / Brown Adipose Tissue / Epididymal fat / Muscle / Retroperitoneal fat / Total intake of high fat diet (g) Day 1-10 / Weight loss (g) Day 7: mean ± SE; for Ratio (fat/muscle): total weights of inguinal fat and retroperitoneal fat/muscle weight
Source text: Compound #8 was suspended in 0.5% Methocel using a hand held homogenizer to reduce the particle size and a magnetic stir bar and stir plate to keep the particles homogeneously suspended throughout the dosing period. 0.5% Hydroxypropyl Methylcellulose (Methocel) used as vehicle/control.
Male AKR/J mice weighing between 35 to 46 grams were used for weight loss studies. AKR/J mice are susceptible to diet-induced obesity. Male AKR/J mice (average body weight of about 20 grams) at 4 to 5 weeks of age (obtained from Jackson Laboratories, Bar Harbor, Me.) were group housed, five per cage, in a shoebox cage at 21° C. with a 12 h light dark cycle. All of the mice were quarantined for a period of one week before transfer to the animal procedure room. The mice were fed a high fat diet for 8 weeks to induce obesity. The composition of the diet by energy was 45% energy as fat, 20% as protein, and 35% as carbohydrate (obtained from Research Diets, D12451, New Brunswick, N.J.). As a non-obese control, an additional group of mice that were age- and weight-matched was fed with a low fat diet (obtained from Research Diets, D12450B, New Brunswick, N.J.). Only mice that developed obesity, defined as a body weight between 35 and 46 grams, were selected for the weight loss studies. Animals were separated and single housed at least three days prior to the drug treatments to allow acclimation to the new surroundings.
The assay comprised two separate studies: In the first study, 10 mice were given vehicle control of 0.5% Methocel; 10 mice were treated with 300 mg/kg Compound #8 in vehicle; and 10 mice were dosed as positive control with 10 mg/kg sibutramine (a weight loss agent) in vehicle. In the second study, 48 mice were allocated into 4 treatment groups of 12 mice each. The four groups were then treated with 0.5% Methocel (vehicle), 10 mg/kg Compound #8, 30 mg/kg Compound #8, and 100 mg/kg Compound #8 in vehicle, respectively.
The mice were orally gavaged once daily (at 1500-1700 hour) with vehicle control (0.5% methocel, pH7.4) or vehicle containing Compound #8 for 10 days. The dosing volume was 5 mL/kg body weight (0.2 mL for 40 gram mice). Body weight and food intake of mice were monitored periodically throughout the studies. On Day 11, the mice were fasted for 4 hr during light cycle (food was removed 0600-1000 hour). A necropsy was done 18 hours after last dosing. The mice were anaesthetized with sodium pentobarbital (1 ml/kg, intraperitoneal [i.p.] injection, SleepAway, Fort Dodge, Iowa) and blood was drawn via cardiac puncture using an 1 mL syringe and collected into heparinized tubes. […] Plasma samples were obtained by centrifuging whole blood at 2000˜3000 g for 10˜20 minutes at 4° C. and stored at −20° C. for further measurement of insulin, HDL, LDL, and total cholesterol and triglyceride.
Blood glucose levels were measured with a glucometer (OneTouch UltraSmart, Lifescan, Milpitas, Calif.) after collecting two microliters of blood through tail puncture. Plasma insulin concentrations were measured by using rat/mouse insulin enzyme-linked immunosorbent assay (ELISA) kit (EZRMI-13K, LINCO Research, St. Charles, Mo.). Blood samples were diluted 1:4 in charcoal stripped mouse serum that was included in the ELISA kit. The rest of the procedure followed the manufacturers instruction. The total fluorescence was detected using an Orion 1 Microplate Luminometer (Berthold Detection Systems, Pforzheim, Germany). Plasma total cholesterol, high density lipoprotein (HDL), low density lipoprotein (LDL) and triglyceride concentrations were measured by using a Bayer ADVIA 1650 blood chemistry analyzer (Bayer HealthCare LLC, Diagnostic Division, Tarrytown, N.Y.). […]

[1] = 300 mg/kg oral, 10-day treatment
[2] = first study, 300 mg/kg oral gavage once daily
[3] = first study, 300 mg/kg, after 10 days of dosing
[4] = second study, 10 mg/kg oral once daily
[5] = second study, 30 mg/kg oral once daily
[6] = second study, 100 mg/kg oral once daily
[7] = first study, 10 mg/kg, after 10 days of dosing
[8] = first study, positive control 10 mg/kg

NS(=O)(=O)NCC1CCc2ccccc2O1 (stereo not shown)
melting point: 100 to 101 °C

NS(=O)(=O)NC[C@H]1COc2cc(Cl)ccc2O1 [Compound #8, (2S)-(−)-N-(6-Chloro-2,3-dihydro-benzo[1,4]dioxin-2-ylmethyl)-sulfamide]
Weight Loss (AKR/J Obese Mice; 300 mg/kg oral gavage once daily, 10-day treatment, mean ± standard error, 9-10 mice): -3.3 ± 0.34 g
Food Intake (g) Day 4-10 (AKR/J Obese Mice; 300 mg/kg oral gavage once daily, Day 4-10, mean ± standard error): 16.2 ± 0.68 g
Retroperitoneal Fat Weight (AKR/J Obese Mice; 300 mg/kg oral gavage once daily, dissected day 11, mean ± standard error): 0.47 ± 0.04 g
Skeletal Muscle Weight (AKR/J Obese Mice; 300 mg/kg oral gavage once daily, gastrocnemius and soleus, day 11, mean ± standard error): 0.30 ± 0.01 g
changes in skeletal muscle mass (in words) (AKR/J Obese Mice; [1]): no significant changes
decrease of fat to lean mass ratio (white adipose tissue/skeletal muscle) compared to vehicle treated mice (AKR/J Obese Mice; [1]): 16.8%
reduction of retroperitoneal fat relative to vehicle treated mice (AKR/J Obese Mice; [1]): 26.6%
fat to lean mass ratio (white adipose tissue/skeletal muscle) (AKR/J Obese Mice; 300 mg/kg oral, 10-day treatment, vehicle 8.9±0.4, p<0.05): 7.4±0.5
weight loss compared to vehicle treated mice (in words) (AKR/J Obese Mice; 300 mg/kg oral, after 10-day treatment): greater weight loss
food intake relative to control animals (in words) (AKR/J Obese Mice; 300 mg/kg oral, day 4 to day 10): reduction of food intake
gastric emptying (AKR/J Obese Mice; 300 mg/kg oral, p<0.05): delay gastric emptying at a statistically significant level
Intake of high fat diet (g) Day 0-3 (AKR/J mice; [2]): 10.0 ± 0.4 g
Intake of high fat diet (g) Day 4-7 (AKR/J mice; [2]): 10.6 ± 0.4 g
Weight loss (g) Day 4 (AKR/J mice; [2]): -0.3 ± 0.3 g
Weight loss (g) Day 8 (AKR/J mice; [2]): -2.5 ± 0.3 g
Weight loss (g) Day 10 (AKR/J mice; [2]): -3.3 ± 0.3 g
weight loss compared with vehicle treated mice (in words) (AKR/J mice; [3]): significant weight loss
white adipose tissue weight compared with vehicle treatment (in words) (AKR/J mice; [3]): reduced white adipose tissue weight
Brown Adipose Tissue (AKR/J mice; [3]): 0.22 ± 0.09 g
Epididymal fat (AKR/J mice; [3]): 1.73 ± 0.10 g
Muscle (AKR/J mice; [3]): 0.30 ± 0.01 g
Retroperitoneal fat (AKR/J mice; [3]): 0.47 ± 0.04 g
food intake compared to vehicle (in words) (AKR/J mice; first study, 300 mg/kg, three days after treatment): Significant suppression of food intake
Ratio (fat/muscle) (AKR/J mice; first study, 300 mg/kg): 7.42 ± 0.54
Total stomach content, measured at the end of the study (AKR/J mice; first study, 300 mg/kg, vehicle 0.16±0.02 g, p<0.05): 0.27 ± 0.05 g
weight loss or food intake suppression (in words) (AKR/J mice; second dose response study, 10, 30, and 100 mg/kg): no significant (P>0.05) weight loss or food intake suppression
Total intake of high fat diet (g) Day 1-10 (AKR/J mice; [4]): 28 ± 0.5 g
Weight loss (g) Day 4 (AKR/J mice; [4]): 0.1 ± 0.1 g
Weight loss (g) Day 7 (AKR/J mice; [4]): 0.2 ± 0.2 g
Weight loss (g) Day 10 (AKR/J mice; [4]): 0.3 ± 0.3 g
Total intake of high fat diet (g) Day 1-10 (AKR/J mice; [5]): 28 ± 0.5 g
Weight loss (g) Day 4 (AKR/J mice; [5]): 0.1 ± 0.1 g
Weight loss (g) Day 7 (AKR/J mice; [5]): 0.0 ± 0.2 g
Weight loss (g) Day 10 (AKR/J mice; [5]): -0.4 ± 0.2 g
Total intake of high fat diet (g) Day 1-10 (AKR/J mice; [6]): 28 ± 0.6 g
Weight loss (g) Day 4 (AKR/J mice; [6]): 0.2 ± 0.1 g
Weight loss (g) Day 7 (AKR/J mice; [6]): 0.2 ± 0.3 g
Weight loss (g) Day 10 (AKR/J mice; [6]): 0.1 ± 0.2 g

CC(C)CC(N(C)C)C1(c2ccc(Cl)cc2)CCC1 (stereo not shown) [Sibutramine, sibutramine, reference compound]
food intake from day 0 to Day 3 (in words) (AKR/J mice; first study, 10 mg/kg): reduction of food intake
weight after 3 days treatment (in words) (AKR/J mice; first study, 10 mg/kg): lost weight
weight at the end of the study compared to control mice (in words) (AKR/J mice; first study, 10 mg/kg): no difference in weight
Brown Adipose Tissue (AKR/J mice; [7]): 0.14 ± 0.01 g
Epididymal fat (AKR/J mice; [7]): 1.76 ± 0.11 g
Muscle (AKR/J mice; [7]): 0.31 ± 0.01 g
Retroperitoneal fat (AKR/J mice; [7]): 0.61 ± 0.07 g
Ratio (fat/muscle) (AKR/J mice; first study, 10 mg/kg): 7.67 ± 0.59
Intake of high fat diet (g) Day 0-3 (AKR/J mice; [8]): 6.5 ± 0.3 g
Intake of high fat diet (g) Day 4-7 (AKR/J mice; [8]): 14.4 ± 0.7 g
Weight loss (g) Day 4 (AKR/J mice; [8]): -2.0 ± 0.2 g
Weight loss (g) Day 8 (AKR/J mice; [8]): -1.2 ± 0.4 g
Weight loss (g) Day 10 (AKR/J mice; [8]): -1.2 ± 0.5 g
